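96-well plates; 48 h exposure; 5 concentrations. Endpoints by linear interpolation between flanking doses. Not reached: highest tested concentration assigned. At the GI50, growth is halved.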 The source made the active and inactive calls. Cut-off read from the data, not from the text of the source: active = GI50 up to about 1.1 µM and inactive = higher.
Assays:
Test in all cases: NCI-60 cell line screen, 48 h
NCI-H460 = system: NCI-H460
SF-295 = system: SF-295
SNB-75 = system: SNB-75
MDA-MB-435 = system: MDA-MB-435
KM12 = system: KM12
DU-145 = system: DU-145
U-251 = system: U-251
HCC 2998 = system: HCC 2998
T47D = system: T47D
786-0 = system: 786-0
EKVX = system: EKVX
MDA-N = system: MDA-N
IGROV-1 = system: IGROV-1
SW-620 = system: SW-620
NCI-H23 = system: NCI-H23
LOX IMVI = system: LOX IMVI
SF-268 = system: SF-268
HT-29 = system: HT-29
SK-MEL-28 = system: SK-MEL-28
PC-3 = system: PC-3

Row | SMILES | GI50 (NCI-H460) | GI50 (SF-295) | GI50 (SNB-75) | GI50 (MDA-MB-435) | GI50 (KM12) | GI50 (DU-145) | GI50 (U-251) | GI50 (HCC 2998) | GI50 (T47D) | GI50 (786-0) | GI50 (EKVX) | GI50 (MDA-N) | GI50 (IGROV-1) | GI50 (SW-620) | GI50 (NCI-H23) | GI50 (LOX IMVI) | GI50 (SF-268) | GI50 (HT-29) | GI50 (SK-MEL-28) | GI50 (PC-3)
1 | COc1ccc2c(c1)OC(c1cccnc1)C(c1ccccc1)C2=O (stereo not given) | > 100 µM (inactive) | 46.5 µM (inactive) | > 100 µM (inactive) | > 100 µM (inactive) | > 100 µM (inactive) | > 100 µM (inactive) | 43.8 µM (inactive) | > 100 µM (inactive) | > 100 µM (inactive) | 86.1 µM (inactive) | > 100 µM (inactive) | > 100 µM (inactive) | > 100 µM (inactive) | > 100 µM (inactive) | > 100 µM (inactive) | > 100 µM (inactive) | 61 µM (inactive) | > 100 µM (inactive) | > 100 µM (inactive) | > 100 µM (inactive)
2 | O=C(C[n+]1ccc2ccccc2c1)c1ccc2ccc3ccccc3c2c1 | 0.741 µM (active) | 0.824 µM (active) | 5.85 µM (inactive) | 0.841 µM (active) | 1.33 µM (inactive) | 6.19 µM (inactive) | 2.21 µM (inactive) | 1.66 µM (inactive) | 4.74 µM (inactive) | 1.67 µM (inactive) | 6.27 µM (inactive) | 0.647 µM (active) | 2.23 µM (inactive) | 1.31 µM (inactive) | 2.38 µM (inactive) | 1.08 µM (active) | 4.52 µM (inactive) | 1.03 µM (active) | 2.12 µM (inactive) | 2.84 µM (inactive)
3 | O=C1OC(c2ccc(O)c(-c3ccccc3)c2)(c2ccc(O)c(-c3ccccc3)c2)c2c(Cl)c(Cl)c(Cl)c(Cl)c21 | > 100 µM (inactive) | > 100 µM (inactive) | > 100 µM (inactive) | > 100 µM (inactive) | > 100 µM (inactive) | > 100 µM (inactive) | > 100 µM (inactive) | > 100 µM (inactive) | > 100 µM (inactive) | > 100 µM (inactive) | > 100 µM (inactive) | > 100 µM (inactive) | > 100 µM (inactive) | > 100 µM (inactive) | > 100 µM (inactive) | > 100 µM (inactive) | > 100 µM (inactive) | > 100 µM (inactive) | > 100 µM (inactive) | > 100 µM (inactive)
4 | COC(=O)C(C)(C)NC(=O)C(Cc1ccccc1)Nc1ncnc2c1ncn2-c1ccc(OC)cc1 (stereo not given) | 22.9 µM (inactive) | 73.1 µM (inactive) | 24.1 µM (inactive) | 14.9 µM (inactive) | 25.6 µM (inactive) | 47.3 µM (inactive) | 26.5 µM (inactive) | 50.7 µM (inactive) | 17.5 µM (inactive) | 28.8 µM (inactive) | 10.8 µM (inactive) | 20.3 µM (inactive) | 15 µM (inactive) | 19.9 µM (inactive) | 56.8 µM (inactive) | 34.2 µM (inactive) | 31 µM (inactive) | 19.9 µM (inactive) | 33.6 µM (inactive) | 29.5 µM (inactive)
5 | OCCN1CCN(c2nc(N3CCCC3)c3nc(Cl)c(NCc4ccccc4)nc3n2)CC1 | 5.58 µM (inactive) | 5.53 µM (inactive) | 3.27 µM (inactive) | 3.98 µM (inactive) | 4.97 µM (inactive) | 8.15 µM (inactive) | 5.65 µM (inactive) | 1.93 µM (inactive) | 5.32 µM (inactive) | 1.95 µM (inactive) | 11.3 µM (inactive) | 3.7 µM (inactive) | 8.43 µM (inactive) | 3.78 µM (inactive) | 14.5 µM (inactive) | 5.4 µM (inactive) | 8.85 µM (inactive) | 3.18 µM (inactive) | 4.09 µM (inactive) | 9.27 µM (inactive)
6 | CC1(C)CC[C@]2(C(=O)O)CC[C@]3(C)C(=CCC4=C5C[C@H](O)[C@H](O)[C@@](C)(CO)[C@@]5(C)CC[C@]43C)[C@@H]2C1 | 30.4 µM (inactive) | 33.7 µM (inactive) | 26.7 µM (inactive) | 62.1 µM (inactive) | 38.9 µM (inactive) | 33.4 µM (inactive) | 48.2 µM (inactive) | 24 µM (inactive) | 28.4 µM (inactive) | 31.8 µM (inactive) | 51.5 µM (inactive) | 47.4 µM (inactive) | 36.9 µM (inactive) | 95.1 µM (inactive) | 37.9 µM (inactive) | 35.7 µM (inactive) | 51.4 µM (inactive) | 41.5 µM (inactive) | > 100 µM (inactive) | 59.3 µM (inactive)
7 | Nc1nc(NCC2(CO)CC(CCc3ccccc3)C2)cc(=O)[nH]1 (stereo not given) | > 100 µM (inactive) | > 100 µM (inactive) | > 100 µM (inactive) | > 100 µM (inactive) | > 100 µM (inactive) | > 100 µM (inactive) | > 100 µM (inactive) | > 100 µM (inactive) | 27.8 µM (inactive) | > 100 µM (inactive) | > 100 µM (inactive) | > 100 µM (inactive) | > 100 µM (inactive) | > 100 µM (inactive) | > 100 µM (inactive) | > 100 µM (inactive) | > 100 µM (inactive) | > 100 µM (inactive) | > 100 µM (inactive) | > 100 µM (inactive)
8 | COc1ccc(N2C=Nn3c(nc4sc5c(c4c3=O)CCCC5)C2)cc1 | 86.9 µM (inactive) | 18.3 µM (inactive) | 8.77 µM (inactive) | > 100 µM (inactive) | > 100 µM (inactive) | > 100 µM (inactive) | 16.7 µM (inactive) | 47.8 µM (inactive) | > 100 µM (inactive) | 5.77 µM (inactive) | 73.6 µM (inactive) | > 100 µM (inactive) | > 100 µM (inactive) | > 100 µM (inactive) | 26.1 µM (inactive) | 33.6 µM (inactive) | 19.2 µM (inactive) | > 100 µM (inactive) | > 100 µM (inactive) | > 100 µM (inactive)
9 | NNC(=O)CNc1cccc(Br)c1 | > 100 µM (inactive) | > 100 µM (inactive) | > 100 µM (inactive) | > 100 µM (inactive) | > 100 µM (inactive) | > 100 µM (inactive) | > 100 µM (inactive) | > 100 µM (inactive) | > 100 µM (inactive) | > 100 µM (inactive) | > 100 µM (inactive) | > 100 µM (inactive) | > 100 µM (inactive) | > 100 µM (inactive) | > 100 µM (inactive) | > 100 µM (inactive) | > 100 µM (inactive) | > 100 µM (inactive) | > 100 µM (inactive) | > 100 µM (inactive)
10 | O=C(/C=C1\N=C(c2ccccc2)N(c2nc3c(Cl)cc(Cl)cc3s2)C1=O)/C=C/c1ccccc1 | > 100 µM (inactive) | > 100 µM (inactive) | 36.5 µM (inactive) | 54.3 µM (inactive) | > 100 µM (inactive) | > 100 µM (inactive) | > 100 µM (inactive) | > 100 µM (inactive) | 24.9 µM (inactive) | > 100 µM (inactive) | > 100 µM (inactive) | 45.8 µM (inactive) | > 100 µM (inactive) | 72.3 µM (inactive) | > 100 µM (inactive) | > 100 µM (inactive) | > 100 µM (inactive) | > 100 µM (inactive) | > 100 µM (inactive) | 69.3 µM (inactive)
11 | CCOC(=O)c1ccc(NC(=O)O/N=C(/Cl)C(C)C)cc1 | 19.6 µM (inactive) | 19.1 µM (inactive) | 12.9 µM (inactive) | 16 µM (inactive) | 18.3 µM (inactive) | 28.1 µM (inactive) | 19.1 µM (inactive) | 16.6 µM (inactive) | 2.75 µM (inactive) | 6.67 µM (inactive) | 14.9 µM (inactive) | 15.8 µM (inactive) | 19.4 µM (inactive) | 2.09 µM (inactive) | 20 µM (inactive) | 4.95 µM (inactive) | 16.5 µM (inactive) | 20.7 µM (inactive) | 16.2 µM (inactive) | 20.4 µM (inactive)
12 | C#C/C=C/CC1OC(C(Br)CC)CC(Br)C2CC1O2 (stereo not given) | > 100 µM (inactive) | > 100 µM (inactive) | 52.1 µM (inactive) | 86.5 µM (inactive) | 60.5 µM (inactive) | > 100 µM (inactive) | 78 µM (inactive) | 56 µM (inactive) | 75.3 µM (inactive) | 7.69 µM (inactive) | 40.6 µM (inactive) | 80.5 µM (inactive) | 3.25 µM (inactive) | 34.8 µM (inactive) | > 100 µM (inactive) | 1.71 µM (inactive) | > 100 µM (inactive) | 42.6 µM (inactive) | 42.1 µM (inactive) | 45.6 µM (inactive)
13 | Cc1cc(C)c2c(n1)S(=O)(=O)N(CCCN1CCN(c3cccc(C(F)(F)F)c3)CC1)c1c-2nn(C)c1C | 89.3 µM (inactive) | 52.7 µM (inactive) | > 100 µM (inactive) | 40.5 µM (inactive) | 52.8 µM (inactive) | > 100 µM (inactive) | > 100 µM (inactive) | > 100 µM (inactive) | > 100 µM (inactive) | > 100 µM (inactive) | > 100 µM (inactive) | 39.9 µM (inactive) | 55.2 µM (inactive) | > 100 µM (inactive) | 61.2 µM (inactive) | 52.6 µM (inactive) | > 100 µM (inactive) | 16.6 µM (inactive) | 60 µM (inactive) | 25.9 µM (inactive)
14 | O=C1C=C(Br)C(=O)C12CCc1ccccc12 (stereo not given) | 22.6 µM (inactive) | 18.6 µM (inactive) | 13.6 µM (inactive) | 14.7 µM (inactive) | 21.1 µM (inactive) | 16.2 µM (inactive) | 21.7 µM (inactive) | 22.3 µM (inactive) | 17.8 µM (inactive) | 11.9 µM (inactive) | 25.4 µM (inactive) | 16.5 µM (inactive) | 20.5 µM (inactive) | 4.4 µM (inactive) | 19.7 µM (inactive) | 12.5 µM (inactive) | 22.3 µM (inactive) | 14.8 µM (inactive) | 12.2 µM (inactive) | 17.7 µM (inactive)

Source: ChEMBL document CHEMBL1201862, “PubChem BioAssay data set” (2004)
